Source: US20260315446A1, “ANTIFUNGAL COMPOUNDS AND USES THEREOF” (priority 2023, published 2026)
pIC50: −log10 of the molar value. ≈ marks a conversion by molar mass, not a printed value. Entries after “also recorded” stand apart in the source; their conditions may differ. Like-named read-outs stand apart in the source and are kept apart here.

How the values were obtained:
[1] = tested on: Candida albicans (SC5314); test: Broth microdilution MIC (Example 1); format: cell-based; settings: Candida albicans, SC5314; in the presence of 1 μg/mL fluconazole; read-out: MIC against Candida albicans (SC5314)
Protocol: (§1) MICs/minimum effective concentrations (MECs) were determined for each of the novel analogs against the three major human fungal pathogens, A. fumigatus, C. neoformans, and C. albicans. […] Thus, analogs of FK506 and FK520 can tolerate up to 100-fold reduction in antifungal activity and still be considered for in vivo testing. For C. neoformans, MICs were the most uniform and ranged from 0.2 to 2 μg/mL, which is between 4- and 40-fold reduced for antifungal activity.
(§2) In vitro antifungal activities of FK506, FK520, and analogs were assessed in RPMI 1640 (Sigma-Aldrich) for all strains tested. MICs/minimum effective concentrations (MECs) for each drug were measured using modified Clinical and Laboratory Standards Institute (CLSI) M38-A2 and M27-A3 standard in vitro antifungal susceptibility protocols. Broth microdilution assays for MIC/MEC assessment were performed as described previously (see, Juvvadi P R, et al., 2019, Nat Commun 10:4275). All antifungal assays with C. neoformans were performed at 37° C. Antifungal susceptibility testing for C. albicans was performed in the presence of a uniform 1 μg/mL concentration of fluconazole to sensitize the organism to calcineurin inhibition.

[2] = tested on: Cryptococcus neoformans (H99); test: Broth microdilution MIC (Example 1); format: cell-based; settings: for MIC: Cryptococcus neoformans, 37° C., read-out: MIC against Cryptococcus neoformans (H99)
Protocol: as §1, §2

Aspergillus fumigatus = test: Broth microdilution MIC/MEC (Example 1); format: cell-based; settings: Aspergillus fumigatus; strain Af293; read-out: MEC against Aspergillus fumigatus (Af293)
Protocol: as §1
To assess the antifungal activity against other human fungal pathogens, JH-FK-05 was selected to test against a panel of pathogenic molds and drug-resistant A. fumigatus strains (Table 4). JH-FK-05 registered MECs as low as 1 μg/mL for some of these highly recalcitrant species, such as Mucor circinelloides, Rhizopus oryzae, and pan azole-resistant A. fumigatus (strain F14946).
as §2

[3] = tested on: C. neoformans growth versus IL-2 in murine T cells; test: Therapeutic index score (immunosuppressive fold change to antifungal fold change relative to FK506); parameters: species or system Cryptococcus neoformans; mouse; settings: Table 12, Example 4; FK506 = 1.0
From the text: To assess the therapeutic potential for these compounds, it was important to develop an approach to score and rank them based on antifungal and immunosuppressive activities. The therapeutic index score (TIscore) is a ratio of the immunosuppressive fold change to the antifungal fold change, with all values relative to the baseline FK506 activity (FIG. 6B). A TIscore of >1.0 indicates an increase in fungal specificity because the fold change of the immunosuppressive reduction is greater than the antifungal activity reduction. As an example, JH-FK-05 is 20-fold reduced for antifungal activity but about 180-fold reduced for immunosuppression. Therefore, the TIscore of JH-FK-05 is 9.1 (TIscore=182/20). The top two analogs were JH-FK-02 (TIscore=9.7) and JH-FK-05 (TIscore=9.1). Due to the similar TIscore, JH-FK-05 was prioritized to advance to animal trials on the merit of more pronounced antifungal activity compared to JH-FK-02.
Based on the in vitro fungal and mammalian calcineurin inhibition data, the panel of FK520 analogs was assessed and ranked. Therapeutic index (TI) scores were used to quantify the effects of structural modification on the compounds (Table 8). Therapeutic index scores were calculated for each analog as the ratio of relative change in immunosuppressive and antifungal activities compared to FK506 as previously utilized (see, I-Toy M J, et at. 2022. mBio 13:e0104922). This ratio of therapeutic benefit and host toxicity, or fungal and mammalian calcineurin inhibition, allowed us to quantify and rank these analogs. […] This is the greatest TI found within the library and allowed us to identify JH-FK-08 as a lead candidate for an in vivo study. Tolerability of JH-FK-08 was assessed by monitoring animal responses to drug dosing across 14 days, including changes in weight, fur condition, and behavior. A maximum dose of 40 mg/kg was tested in once a day dosing, and due to solubility limitations, the tolerability of JH-FK-08 at 60 and 80 mg/kg total daily doses was assessed by dosing two equal doses per day (FIG. 14). […] It should be noted that analogs JH-FK-12 and JH-FK-23 are also promising candidates with respective Tis of 24.7 and 24.5.

C. neoformans = test: MIC assay (Example 4); format: cell-based, Cryptococcus neoformans; settings: for MIC: Cryptococcus neoformans
Protocol: Both JH-FK-10 and JH-FK-11 maintained in vitro antifungal activity against C. neoformans with MICs of 0.8 and 1.6 μg/mL, respectively (Table 11).
In vitro antifungal activity of FK506, FK520, and analogs was assessed in RPMI 1640 (Sigma-Aldrich) for all strains tested. Minimum inhibitory concentrations (MIC) for each drug were measured using modified Clinical and Laboratory Standards Institute (CLSI) M38-A2 and M27-A3 standard in vitro antifungal susceptibility protocols. Broth microdilution assays for MIC assessment were performed as previously described. All antifungal assays with C. neoformans were performed at 37° C.

[4] = tested on: IL-2 expression in primary murine CD4+ T cells; test: In vitro immunosuppressive activity, IL-2 expression (Example 4); format: cell-based, mouse; settings: for pIC50: Mus musculus, CD4+ T
Protocol: Spleen and lymph nodes were collected from C57BL/6 mice and homogenized through a 40 μm filter. Pan-CD4^+ T cells were enriched using MagniSort Mouse CD4 T cell Kit (eBioscience) according to the manufacturer's protocol. Thereafter, CD4+CD25−CD44lo CD62Lhi naïve T cells were FACS-sorted. The naïve CD4+ T cells were grown in Iscove's Modified Dulbecco's Medium (IMDM) supplemented with glutamine, penicillin, streptomycin, gentamicin, 2-mercaptoethanol, and 10% FBS. Cells were then cultured on anti-hamster IgG coated plates in the presence of hamster anti-CD3 epsilon and anti-CD28 antibodies (BD Biosciences), neutralizing anti-IL-4 antibody (eBioscience), recombinant IL-12 (10 ng/mL), and recombinant IL-2 (50 U/mL) for 72 h. During this period, cells were grown in the presence of 2× serially diluted FK506, FK520, or analog suspended in DMSO for 72 h. During the last 4 h of culture, phorbol 12-myristate 13-acetate (PMA; Sigma), ionomycin (Sigma), and GolgiStop (BD Biosciences) were added to the culture to facilitate detection of intracellular cytokines via flow cytometry.
Live cells were stained with FITC-conjugated anti-CD4 antibody (eBioscience) and Fixable Viability Dye eFluor 506 (eBioscience) on ice, followed by fixation and permeabilization using the Foxp3 Transcription Factor Staining Kit (eBioscience). Intracellular staining was performed at room temperature using PE-conjugated anti-IL-2 antibody (eBioscience), followed by analysis with a BD LSRFortessa X-20 flow cytometer.

## C=CC[C@@H]1/C=C(\C)C[C@H](C)C[C@H](OC)[C@H]2O[C@@](O)(C(=O)C(=O)N3CCCC[C@H]3C(=O)O[C@H](/C(C)=C/[C@@H]3CC[C@@H](O)[C@H](OC)C3)[C@H](C)[C@@H](O)C/C1=N/NC(C)=O)[C@H](C)C[C@@H]2OC [JH-FK-01]
[1]
  MIC: 0.4 µg/mL
[2]
  MIC: 1 µg/mL (≈ 1.16 µM)
Aspergillus fumigatus
  minimal effective concentration: 1 µg/mL

## C=CC[C@@H]1/C=C(\C)C[C@H](C)C[C@H](OC)[C@H]2O[C@@](O)(C(=O)C(=O)N3CCCC[C@H]3C(=O)O[C@H](/C(C)=C/[C@@H]3CC[C@@H](O)[C@H](OC)C3)[C@H](C)[C@@H](O)C/C1=N/NC(=O)c1ccccc1)[C@H](C)C[C@@H]2OC [JH-FK-03]
[1]
  MIC: 0.8 µg/mL
[2]
  MIC: 1 µg/mL (≈ 1.08 µM)
Aspergillus fumigatus
  minimal effective concentration: 1 µg/mL

## C=CC[C@@H]1/C=C(\C)C[C@H](C)C[C@H](OC)[C@H]2O[C@@](O)(C(=O)C(=O)N3CCCC[C@H]3C(=O)O[C@H](/C(C)=C/[C@@H]3CC[C@@H](O)[C@H](OC)C3)[C@H](C)[C@@H](O)CC1=NNC(=O)CN(C)C)[C@H](C)C[C@@H]2OC [JH-FK-04]
[1]
  MIC: 6.25 µg/mL
[2]
  MIC: 2 µg/mL (≈ 2.21 µM)
Aspergillus fumigatus
  minimal effective concentration: 2 µg/mL

## CC[C@@H]1/C=C(\C)C[C@H](C)C[C@H](OC)[C@H]2O[C@@](O)(C(=O)C(=O)N3CCCC[C@H]3C(=O)O[C@H](/C(C)=C/[C@@H]3CC[C@@H](O)[C@H](OC)C3)[C@H](C)[C@@H](O)C/C1=N/NC(=O)C(F)(F)F)[C@H](C)C[C@@H]2OC [JH-FK-07]
[1]
  MIC: 0.2 µg/mL
[2]; C. neoformans, C. albicans, A. fumigatus
  broad-spectrum antifungal activity / MIC ranking: maintained high levels of broad-spectrum antifungal activity across the three species; also recorded: had the lowest MICs for both C. neoformans and C. albicans
[2]
  MIC: 0.2 µg/mL (≈ 0.222 µM)
Aspergillus fumigatus
  minimal effective concentration: 1.25 µg/mL

## CC[C@@H]1/C=C(\C)C(O)[C@H](C)C[C@H](OC)[C@H]2O[C@@](O)(C(=O)C(=O)N3CCCC[C@H]3C(=O)O[C@H](/C(C)=C/[C@@H]3CC[C@@H](O)[C@H](OC)C3)[C@H](C)[C@@H](O)CC1=O)[C@H](C)C[C@@H]2OC (some centres unmarked) [JH-FK-10]
[3]
  Therapeutic Index Score: 3.2
C. neoformans; 37° C., Table 11, read-out: C. neoformans MIC
  MIC: 0.8 µg/mL (≈ 0.99 µM)
C. neoformans; read-out: C. neoformans MIC, 37° C., Table 12
  MIC: 0.8 µg/mL (≈ 0.99 µM)
[4]
  immunosuppressive activity: detectable immunosuppressive activities
[4]; Table 12
  pIC50: 8.24

## CC[C@@H]1/C=C(\C)C(O)[C@H](C)C[C@H](OC)[C@H]2O[C@@](O)(C(=O)C(=O)N3CCCC[C@H]3C(=O)O[C@H](/C(C)=C/C3CC[C@@H](O)[C@H](OC)C3)[C@H](C)[C@@H](O)C/C1=N/NC(C)=O)[C@H](C)C[C@@H]2OC (some centres unmarked) [JH-FK-18]
C. neoformans; 37° C., Table 13
  C. neoformans MIC: >50 µg/mL
C. neoformans; 37° C., Table 13, read-out: C. neoformans MIC
  MIC: > 50 µg/mL
C. neoformans; up to a maximum concentration of 50 μg/mL
  antifungal activity: no detectable antifungal or immunosuppressive activity; also recorded: no detectable biological activity
[4]; 200 nM
  IL-2 production: no changes in IL-2 production
[4]; Table 13
  pIC50: < 6.70
